From publication PMC10178848, “Modulating fast skeletal muscle contraction protects skeletal muscle in animal models of Duchenne muscular dystrophy” (The Journal of Clinical Investigation, 2023)

Assays:
TGFBR1 = biological target: T1, TGFBR1 (Homo sapiens, UniProt P36897); test: KINOMEscan scanEDGE; assay type: binding; details: 20 uM
T1 construct: purchased Eurofins DiscoverX (KINOMEscan; SAFETYscan E/IC50 ELECT)

SRC = biological target: T2, SRC (Homo sapiens, UniProt P12931); test: KINOMEscan scanEDGE; assay type: binding; details: 20 uM
T2 construct: purchased Eurofins DiscoverX (KINOMEscan; SAFETYscan E/IC50 ELECT)

PDGFRA = biological target: T3, PDGFRA (Homo sapiens, UniProt P16234); test: KINOMEscan scanEDGE; assay type: binding; details: 20 uM
T3 construct: purchased Eurofins DiscoverX (KINOMEscan; SAFETYscan E/IC50 ELECT)

mdx mice = test: Chronic 8-week dosing in mdx mice (fibrosis, weights, histology); assay type: in vivo, mouse
Text: C57BL/6 (stock no. 000664), C57BL/10J (stock no. 000665, control for mdx experiments), C57BL/10ScSn-Dmd^mdx/J (mdx, stock no. 001801), and D2.B10 (DBA/2-congenic) Dmd^mdx (DBA/2J mdx, stock no. 013141) mice were from The Jackson Laboratory. Sprague-Dawley rats were purchased from Charles River Laboratories. For ex vivo experiments, mice were 10–16 weeks old. For in situ experiments, mice were 8–14 weeks of age. For in vivo chronic dosing studies, mdx and DBA/2J mdx were 4–5 weeks of age at study start. Dosing was via a 10 mL/kg suspension (1% methyl cellulose, 0.1% Tween 80 in water). For studies in 14-day-old preweaning mice, PO dosing was via syrup suspension (3 mg/kg/d). GRMD were supplied by Texas A&M Department of Veterinary Integrative Biosciences.
For sterile muscle injury, mice were anesthetized with isoflurane and 50 μL cardiotoxin (12 × 10^–6 M, 217503, Millipore) injected in the TA muscle. Muscles 8 days after injury were snap frozen in nitrogen-chilled isopentane. 8 μm cryosections were cut and stained with H&E. For each analysis, more than 10 slides (per condition/group) containing 6 muscle sections/sample were used, and myofibers in the injured area were counted and measured with a Mirax digital scanner and HALO software ([68]). For adult mouse studies, muscles were fixed in 10% formalin and embedded in paraffin for sectioning. Laminin staining (RB-082, Thermo Fisher Scientific) was used to outline fibers, and picrosirius red was used for collagen accumulation. Image analysis was performed using ImarisX64 software (Bitplane AG), and fiber sizing was calculated using minimal Feret’s diameter ([69]). For after weaning juvenile mouse studies, cryosections from soleus muscles were mounted in ProLong antifade mountant with DAPI (Thermo Fisher Scientific). Fiber type, size, and central nucleation were quantified with analysis via SMASH ([70]) and ImageJ (NIH). Antibodies used were mouse anti-MHC2A (1:50, SC-71, Developmental Studies Hybridoma Bank) and mouse anti-eMHC (1:10, BF-45, Developmental Studies Hybridoma Bank).

AURKA = biological target: T4, AURKA (Homo sapiens, UniProt O14965); test: KINOMEscan scanEDGE; assay type: binding; details: 20 uM
T4 construct: purchased Eurofins DiscoverX (KINOMEscan; SAFETYscan E/IC50 ELECT)
T4 sequence (O14965 whole entry): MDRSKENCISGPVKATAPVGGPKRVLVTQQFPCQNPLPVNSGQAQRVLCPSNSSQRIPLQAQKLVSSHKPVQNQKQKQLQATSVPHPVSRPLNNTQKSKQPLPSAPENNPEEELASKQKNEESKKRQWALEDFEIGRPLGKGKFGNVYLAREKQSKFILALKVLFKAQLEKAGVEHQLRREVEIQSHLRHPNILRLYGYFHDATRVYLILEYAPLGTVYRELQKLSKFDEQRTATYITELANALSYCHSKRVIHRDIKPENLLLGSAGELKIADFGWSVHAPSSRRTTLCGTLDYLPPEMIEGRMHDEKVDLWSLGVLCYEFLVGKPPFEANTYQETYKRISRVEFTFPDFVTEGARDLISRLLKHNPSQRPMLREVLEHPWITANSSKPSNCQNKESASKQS

T2 sequence (P12931 whole entry): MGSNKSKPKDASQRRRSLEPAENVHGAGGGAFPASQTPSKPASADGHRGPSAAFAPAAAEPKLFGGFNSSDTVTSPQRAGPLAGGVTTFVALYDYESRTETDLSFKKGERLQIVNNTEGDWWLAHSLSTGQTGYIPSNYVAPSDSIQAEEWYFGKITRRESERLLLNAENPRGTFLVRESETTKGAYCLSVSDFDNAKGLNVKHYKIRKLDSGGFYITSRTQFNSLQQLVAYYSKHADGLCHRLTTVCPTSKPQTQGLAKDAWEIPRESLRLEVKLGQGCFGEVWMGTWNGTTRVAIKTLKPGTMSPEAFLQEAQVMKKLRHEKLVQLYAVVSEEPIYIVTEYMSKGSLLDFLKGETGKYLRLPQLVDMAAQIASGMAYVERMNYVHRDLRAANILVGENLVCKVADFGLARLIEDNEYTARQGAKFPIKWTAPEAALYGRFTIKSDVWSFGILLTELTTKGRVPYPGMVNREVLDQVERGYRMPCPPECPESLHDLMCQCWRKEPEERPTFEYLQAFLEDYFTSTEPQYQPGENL
T1 sequence (P36897 34-503): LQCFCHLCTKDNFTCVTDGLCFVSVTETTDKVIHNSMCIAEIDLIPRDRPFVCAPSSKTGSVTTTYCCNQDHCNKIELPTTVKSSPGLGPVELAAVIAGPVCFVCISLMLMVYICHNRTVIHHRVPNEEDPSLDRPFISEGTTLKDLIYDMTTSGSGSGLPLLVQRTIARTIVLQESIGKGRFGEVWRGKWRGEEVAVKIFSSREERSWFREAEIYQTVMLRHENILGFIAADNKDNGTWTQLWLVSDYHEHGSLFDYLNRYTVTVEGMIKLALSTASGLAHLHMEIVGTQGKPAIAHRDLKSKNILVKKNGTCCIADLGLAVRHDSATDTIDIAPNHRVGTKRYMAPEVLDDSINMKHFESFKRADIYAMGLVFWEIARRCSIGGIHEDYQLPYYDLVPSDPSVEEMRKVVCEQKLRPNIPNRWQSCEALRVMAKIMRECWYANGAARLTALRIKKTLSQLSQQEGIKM
T3 sequence (P16234 24-1089): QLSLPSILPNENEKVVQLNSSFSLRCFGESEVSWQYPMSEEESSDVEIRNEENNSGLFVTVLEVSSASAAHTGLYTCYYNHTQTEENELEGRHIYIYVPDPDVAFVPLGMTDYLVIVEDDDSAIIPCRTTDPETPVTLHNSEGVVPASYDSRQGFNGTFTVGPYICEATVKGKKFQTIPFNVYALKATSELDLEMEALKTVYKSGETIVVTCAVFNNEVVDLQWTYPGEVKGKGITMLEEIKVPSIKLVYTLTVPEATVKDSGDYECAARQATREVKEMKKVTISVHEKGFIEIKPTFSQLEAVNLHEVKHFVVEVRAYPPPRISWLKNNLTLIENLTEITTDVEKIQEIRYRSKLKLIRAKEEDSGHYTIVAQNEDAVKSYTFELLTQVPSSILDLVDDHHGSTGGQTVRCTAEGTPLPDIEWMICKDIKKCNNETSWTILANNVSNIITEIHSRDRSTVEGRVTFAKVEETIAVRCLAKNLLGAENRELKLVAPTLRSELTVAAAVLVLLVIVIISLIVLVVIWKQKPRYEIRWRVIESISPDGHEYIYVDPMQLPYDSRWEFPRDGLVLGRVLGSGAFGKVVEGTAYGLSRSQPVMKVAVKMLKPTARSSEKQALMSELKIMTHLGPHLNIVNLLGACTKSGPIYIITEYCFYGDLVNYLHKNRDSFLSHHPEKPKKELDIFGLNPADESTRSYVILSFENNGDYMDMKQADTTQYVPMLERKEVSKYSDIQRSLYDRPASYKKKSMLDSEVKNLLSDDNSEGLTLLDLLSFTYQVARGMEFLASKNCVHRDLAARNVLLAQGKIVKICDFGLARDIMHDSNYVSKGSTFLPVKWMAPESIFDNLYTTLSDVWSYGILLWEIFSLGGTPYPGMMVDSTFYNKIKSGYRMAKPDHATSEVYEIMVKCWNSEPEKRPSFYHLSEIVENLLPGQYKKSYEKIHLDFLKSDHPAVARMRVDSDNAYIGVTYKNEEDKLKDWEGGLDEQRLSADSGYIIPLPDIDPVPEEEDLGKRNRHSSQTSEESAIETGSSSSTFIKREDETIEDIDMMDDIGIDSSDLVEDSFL

## O=c1ccc(-c2cnc(OCC(F)(F)F)nc2)nn1Cc1cncc(F)c1 [EDG-5506]
TGFBR1
  binding, % of control: 100 % of control
SRC
  binding, % of control: 100 % of control
PDGFRA
  binding, % of control: 100 % of control
Mdx mice; 8 weeks
  body or muscle weight: no effect
Mdx mice; 8 weeks of treatment
  diaphragm fibrosis (collagen, picrosirius red): decreased diaphragm fibrosis
Mdx mice; after 5 weeks of dosing
  average grip strength: increased average grip strength
AURKA
  binding, % of control: 99 % of control
